Entries after “also recorded” stand apart in the source; their conditions may differ.
Columns and labels:
[1] = Critical micelle concentration by fluorescence dye diphenylhexatriene (DPH); assay type: physicochemical; settings: DPH fluorescence
Description: A method of measuring the CMC is not particularly limited and may be any method generally known in the art. For example, the CMC may be measured according to a fluorescence staining method using diphenylhexatriene (DPH).
(§1) Specifically, critical micelle concentrations (CMCs) were measured using a fluorescence dye, diphenylhexatriene (DPH), and hydrodynamic radii (Rh) of micelles formed of each compound (1.0 wt %) were measured by a dynamic light scattering (DLS) experiment. Measured results are shown in Table 1 in comparison with values of DDM as an existing amphipathic molecule (detergent).

[2] = Hydrodynamic radius and size distribution of micelles by dynamic light scattering (DLS); assay type: physicochemical; settings: compound 1.0 wt %
Description: A method of measuring the radius of a micelle is not particularly limited and may be any method generally known in the art. For example, the radius may be measured by a dynamic light scattering (DLS) experiment.
as §1
Meanwhile, size distributions of the micelles formed by RGAs and RMAs were measured using DLS.

[3] = target: T1, uric acid-xanthine/H+ symporter (UapA) (Emericella nidulans, UniProt Q07307, G411V); assay: UapA structural/thermal stability (FSEC, CPM assay); assay type: biochemical, Aspergillus nidulans; settings: FIG. 5 (RGAs, FSEC), FIG. 6 (RMAs, CPM assay 40° C. 150 min, CMC+0.04 or CMC+0.2 wt %)
T1 construct: GFP; made in house; host or cells: Saccharomyces cerevisiae FGY217
T1 sequence (Q07307 12-574 G411V): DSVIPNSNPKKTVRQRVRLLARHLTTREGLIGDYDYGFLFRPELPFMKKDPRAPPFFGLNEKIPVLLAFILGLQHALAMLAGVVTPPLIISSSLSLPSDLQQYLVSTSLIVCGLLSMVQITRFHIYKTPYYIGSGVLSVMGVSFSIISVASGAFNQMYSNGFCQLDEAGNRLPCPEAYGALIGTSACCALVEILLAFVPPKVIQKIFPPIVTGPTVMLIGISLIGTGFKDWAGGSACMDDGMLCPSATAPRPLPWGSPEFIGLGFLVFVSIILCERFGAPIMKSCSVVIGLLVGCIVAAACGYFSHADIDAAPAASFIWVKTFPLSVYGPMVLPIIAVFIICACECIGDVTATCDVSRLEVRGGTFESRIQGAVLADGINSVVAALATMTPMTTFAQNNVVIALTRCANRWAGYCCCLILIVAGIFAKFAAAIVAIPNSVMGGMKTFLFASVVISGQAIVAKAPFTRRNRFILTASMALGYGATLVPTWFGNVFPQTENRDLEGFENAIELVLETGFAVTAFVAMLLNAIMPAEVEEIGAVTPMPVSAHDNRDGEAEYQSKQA
Description: FIGS. 5A and 5B are a set of graphs illustrating a result of measuring the thermal stability of UapA in an aqueous solution caused by RGAs or DDM via fluorescence-detection size exclusion chromatography (FSEC):
FIGS. 6A and 6B are a set of graph illustrating a result of measuring thermal denaturation profile of UapA protein in DDM and novel RMAs (RMA-Cs and RMA-CEs) used at CMC+0.04 wt % (a) or CMC+0.2 wt % (b). Protein stability was assessed by CPM assay carried out at 40° C. for 150 min.
An experiment was carried out to measure the structural stability of a uric acid-xanthine/H^+ symporter (UapA) isolated from Aspergillus nidulans caused by RGAs and RMAs. The structural stability of UapA was measured using a sulfhydryl-specific fluorophore, N-[4-(7-diethylamino-4-methyl-3-coumarinyl)phenyl] maleimide (CPM).
Specifically, UapAG411V1-11 (hereinafter, referred to as “UapA”) was expressed in combination with GFP in Saccharomyces cerevisiae FGY217 strains and isolated into a sample buffer (20 mM Tris (pH 7.5), 150 mM NaCl, 0.03% DDM, and 0.6 mM xanthine) according to the method described in the paper (Mol. Membr. Biol. 2013, 30, 32-42) written by J. Leung et al. The membranes containing UapA were diluted to a final protein concentration of 2.8 mg ml^−1 in PBS (pH 7.4) supplemented with either 1% DDM or 1% RMAs or RGAs. […]

[4] = target: T2, human β2 adrenergic receptor (β2AR) (Homo sapiens, UniProt P07550); assay: β2AR stability, [3H]-dihydroalprenolol (DHA) ligand binding assay; assay type: biochemical; settings: for maintaining the ligand binding characteristic of the receptor compared to DDM: 0 hour, CMC+0.2 wt %, [3H]-DHA
T2 construct: made in house
T2 sequence (P07550 whole entry): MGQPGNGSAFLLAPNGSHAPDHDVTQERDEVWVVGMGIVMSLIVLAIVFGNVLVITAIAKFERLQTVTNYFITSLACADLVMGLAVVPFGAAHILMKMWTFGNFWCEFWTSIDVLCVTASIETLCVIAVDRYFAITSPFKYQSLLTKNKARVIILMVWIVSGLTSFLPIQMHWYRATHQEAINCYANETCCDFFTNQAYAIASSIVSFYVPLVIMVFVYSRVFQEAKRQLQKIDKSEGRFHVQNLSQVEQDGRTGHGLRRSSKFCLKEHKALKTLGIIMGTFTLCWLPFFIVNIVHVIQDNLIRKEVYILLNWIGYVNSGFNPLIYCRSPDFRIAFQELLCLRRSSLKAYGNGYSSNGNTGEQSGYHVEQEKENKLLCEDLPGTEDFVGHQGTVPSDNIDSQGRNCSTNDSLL
Description: (§2) FIGS. 10A and 10B illustrate a result of measuring the effect of RGAs on the stability of β2AR after (a) 0 hour and (b) over time. Protein-ligand binding characteristics were measured via ligand binding assay using [^3H]-dihydroalprenolol (DHA), and the measurement was carried out by sampling a protein sample at regular intervals during 2 days of storage at room temperature.
as §2, with “12A” for “10A”, “12B” for “10B”, “RMAs” for “RGAs”
An experiment was carried out to measure the structural stability of a human (32 adrenergic receptor (β2AR) and a G protein-coupled receptor (GPCR) caused by RGAs and RMAs. That is, a receptor purified with DDM was diluted with a buffer solution containing only each RGA and RMA without cholesteryl hemisuccinate (CHS) or a buffer solution containing CHS and DDM. The final concentration of the compound was CMC+0.2 wt %, and the ligand binding characteristic of the receptor was measured using [^3H]-dihydroalprenolol ([^3H]-DHA) binding.
Specifically, radioligand binding assay was carried out using the following method. β2AR was purified using 0.1% DDM according to the method described in a paper (Science, 2007, 318, 1266-1273.) written by D. M. Rosenbaum et al. and finally concentrated to about 10 mg/ml (about 200 μM). The β2AR purified with DDM was used to prepare a master binding mixture containing 10 nM [^3H]-dihydroalprenolol (DHA) supplemented with 0.5 mg/ml BSA in a 0.2% amphipathic compound (DDM, RGAs or RMAs). The receptor purified with DDM, RGAs or RMAs was incubated with 10 nM [^3H]-DHA at room temperature for 30 minutes. The mixture was loaded into a G-50 column, the flow-through was collected with 1 ml of a binding buffer (20 mM HEPES pH 7.5, 100 mM NaCl, supplemented with 0.5 mg/ml BSA and 20×CMC individual amphipathic compound, and the G-50 column was further filled with 15 ml of a scintillation fluid. Receptor-bound [^3H]-DHA was measured with a scintillation counter (Beckman). The binding capacity of [^3H]-DHA was measured and shown in a column graph. Each experiment was performed in triplicate.

[5] = target: T3, Salmonella typhimurium melibiose permease (MelB) (Salmonella typhimurium, UniProt P30878); assay: MelB extraction and solubility after 90 min incubation, SDS-PAGE and western blotting; assay type: biochemical; settings: 55° C., 1.5 wt %
T3 construct: made in house; host or cells: E. coli DW2 (melB and lacZY deleted), plasmid pK95AHB/WT MelBSt/CH10
T3 sequence (P30878 whole entry): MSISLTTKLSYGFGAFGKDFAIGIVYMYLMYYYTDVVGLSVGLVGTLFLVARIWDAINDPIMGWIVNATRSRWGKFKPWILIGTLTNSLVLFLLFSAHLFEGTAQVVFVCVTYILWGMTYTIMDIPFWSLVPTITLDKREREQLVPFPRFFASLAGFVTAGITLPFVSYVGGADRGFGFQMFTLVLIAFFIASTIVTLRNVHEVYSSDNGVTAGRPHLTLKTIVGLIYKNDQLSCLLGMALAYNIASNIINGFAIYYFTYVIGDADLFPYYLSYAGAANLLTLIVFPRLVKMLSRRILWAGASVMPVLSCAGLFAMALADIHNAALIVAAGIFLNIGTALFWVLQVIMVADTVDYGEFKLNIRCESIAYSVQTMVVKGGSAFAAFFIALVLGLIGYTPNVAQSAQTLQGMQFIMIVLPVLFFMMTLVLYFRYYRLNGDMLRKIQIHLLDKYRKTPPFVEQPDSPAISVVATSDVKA
Description: FIGS. 9A and 9B illustrate a result of measuring the amount of a MelB protein dissolved in an aqueous solution after a MelB protein was extracted at four temperatures (0, 45, 55, and 65) using RGAs or DDM at a concentration of 1.5 wt % and then incubated at the same temperatures for 90 minutes:
RGAs were selected, and an experiment was carried out to measure the structural stability of a Salmonella typhimurium melibiose permease (MelB) caused by RGAs. A MelB protein was extracted from a membrane using RGAs or DDM, and the amount and structure of the protein thus extracted was then analyzed by performing SDS-PAGE and western blotting. In this case, the concentration of the used amphipathic compound was 1.5 wt %. The protein was extracted at four temperatures (0, 45, 55, and 65° C.) and then incubated at the same temperatures for 90 minutes. Subsequently, two kinds of performance of the compound, that is, protein extraction efficiency and protein stability were evaluated at the same time by measuring the amount of a protein which remained dissolved in an aqueous solution. The amount of a protein which was extracted and stabilized by an individual amphipathic molecule was expressed as a relative value (%) with respect to the amount of the entire protein included in a membrane sample not treated with an amphipathic molecule.
Specifically, a C-terminal 10-His-tagged Salmonella typhimurium melibiose permease (MelBSt) was expressed in E. coli DW2 cells (melB and lacZY) using plasmid pK95AHB/WT MelBSt/CH10. Cells were grown and membranes were prepared according to the method described in a paper (Nat. Commun. 2014, 5, 3009) written by A. S. Ethayathulla et al. A protein assay was carried out with a Micro BCA kit (Thermo Scientific, Rockford, Ill.). RGAs and DDM were evaluated to measure the stability of MelBSt according to the protocol described in a paper (Nat. Methods 2010, 7, 1003-1008) written by P. S. Chae et al. The membrane sample (final protein concentration of 10 mg/mL) containing MelBSt was incubated in a solubilization buffer containing 1.5% (w/v) DDM or RGAs (20 mM sodium phosphate, pH 7.5, 200 mM NaCl, 10% glycerol, and 20 mM melibiose) at four temperatures (0, 45, 55, and 65° C.) for 90 minutes. An insoluble material was removed by ultracentrifugation at 355,590 g at 4° C. for 45 minutes using a Beckman Optima™ MAX ultracentrifuge equipped with a TLA-100 rotor. A dissolved portion was separated by SDS-16% PAGE, and immunoblotting was then performed using a Penta-His-HRP antibody (Qiagen, Germantown, Md.). A membrane fraction containing 20 μg of protein without treatment was used to illustrate the overall MelB, and the treated samples were loaded into each well in equal volume. MelBSt was measured using the SuperSignal West Pico Chemiluminescent substrate by ImageQuant LAS 4000 Biomolecular Imager (GE Healthcare Life Sciences).

[6] = target: T2, human β2 adrenergic receptor (β2AR); assay: Size exclusion chromatography (SEC) of β2AR receptor-detergent complex; settings: 20×CMC detergent
Description: FIG. 11 illustrates a result of evaluating the size characteristic of a (32AR protein-ligand binding complex formed of RGA-C11, RGA-C13, or DDM via a size exclusion chromatography (SEC) test.
In addition, a size exclusion chromatography (SEC) test was conducted. Specifically, β2AR purified with 0.1% DDM was loaded on a M1 Flag column in the presence of 2 mM CaCl2, and the column was washed with a DDM, RGA-C11 or RGA-C13 detergent buffer (20 mM HEPES pH 7.5, 100 mM NaCl, 0.2% individual amphipathic compound). The receptor was eluted with 20×CMC DDM, RGA-C11, or RGA-C13 with 5 mM EDTA and 0.2 mg/ml free Flag peptide. The eluate was further added to a Superdex-200 10/300 GL column (GE Healthcare) at 0.5 ml/min, and UV absorbance at 280 nm was recorded. The running buffer contained 20 mM HEPES pH 7.5, 100 mM NaCl, 20×CMC individual detergent (DDM, RGA-C11 and RGA-C13).

Structure (SMILES) | CMC [1] [µM] | CMC (wt %) [1] [wt %] | Rh (nm), hydrodynamic radius of micelles [2] [nm] | ability to maintain the UapA protein in a folded state compared to DDM [3] | maintaining the ligand binding characteristic of the receptor compared to DDM [4] | MelB protein extraction efficiency and solubility [5] | ability to maintain the ligand binding of the receptor over time compared to DDM ([4]; 2 days at room temperature, early stage (0 to 12 h)) | receptor stability / ligand binding maintenance relative to DDM (fold, in words) ([4]; incubation at room temperature, early stage) | size of receptor-detergent complex [6]
CCCCCCCC[C@H]1c2cc(c(OCCO[C@@H]3OC(CO)[C@@H](O)[C@H](O)C3O)cc2OCCO[C@@H]2OC(CO)[C@@H](O)[C@H](O)C2O)[C@H](CCCCCCCC)c2cc(c(OCCO[C@@H]3OC(CO)[C@@H](O)[C@H](O)C3O)cc2OCCO[C@@H]2OC(CO)[C@@H](O)[C@H](O)C2O)[C@@H](CCCCCCCC)c2cc(c(OCCO[C@@H]3OC(CO)[C@@H](O)[C@H](O)C3O)cc2OCCO[C@@H]2OC(CO)[C@@H](O)[C@H](O)C2O)[C@@H](CCCCCCCC)c2cc1c(OCCO[C@@H]1OC(CO)[C@@H](O)[C@H](O)C1O)cc2OCCO[C@@H]1OC(CO)[C@@H](O)[C@H](O)C1O (stereo partly drawn) [RGA-C9] | ~7 | ~0.018 | 2.9 ± 0.1 | highest effect | inferior to DDM |  |  |  | 
CCCCCCCCCCCC[C@H]1c2cc(c(OCCO[C@@H]3OC(CO)[C@@H](O)[C@H](O)C3O)cc2OCCO[C@@H]2OC(CO)[C@@H](O)[C@H](O)C2O)[C@H](CCCCCCCCCCCC)c2cc(c(OCCO[C@@H]3OC(CO)[C@@H](O)[C@H](O)C3O)cc2OCCO[C@@H]2OC(CO)[C@@H](O)[C@H](O)C2O)[C@@H](CCCCCCCCCCCC)c2cc(c(OCCO[C@@H]3OC(CO)[C@@H](O)[C@H](O)C3O)cc2OCCO[C@@H]2OC(CO)[C@@H](O)[C@H](O)C2O)[C@@H](CCCCCCCCCCCC)c2cc1c(OCCO[C@@H]1OC(CO)[C@@H](O)[C@H](O)C1O)cc2OCCO[C@@H]1OC(CO)[C@@H](O)[C@H](O)C1O (stereo partly drawn) [RGA-C13] |  | ~0.0056 | 3.7 ± 0.1 |  | superior to DDM | maintained MelB solubility better than DDM; also recorded: higher protein extraction efficiency than DDM | superior ability to maintain the ligand binding of the receptor compared to DDM | enhanced by almost three times | significantly smaller than that formed of DDM
